Results: US11471442B2, “Administration of gut-selective JAK3 inhibitor” (THERAVANCE BIOPHARMA R&D IP, LLC, priority 2020, dated 2022)
Read-outs that look alike come from different tables or passages of the source.

How the values were obtained:
[1] = target: T1, JAK3 (Homo sapiens, UniProt P52333); assay: Protein-adjusted JAK3 IC50 (reference value, data on file); type: cell-based
T1 sequence (P52333 1-1124): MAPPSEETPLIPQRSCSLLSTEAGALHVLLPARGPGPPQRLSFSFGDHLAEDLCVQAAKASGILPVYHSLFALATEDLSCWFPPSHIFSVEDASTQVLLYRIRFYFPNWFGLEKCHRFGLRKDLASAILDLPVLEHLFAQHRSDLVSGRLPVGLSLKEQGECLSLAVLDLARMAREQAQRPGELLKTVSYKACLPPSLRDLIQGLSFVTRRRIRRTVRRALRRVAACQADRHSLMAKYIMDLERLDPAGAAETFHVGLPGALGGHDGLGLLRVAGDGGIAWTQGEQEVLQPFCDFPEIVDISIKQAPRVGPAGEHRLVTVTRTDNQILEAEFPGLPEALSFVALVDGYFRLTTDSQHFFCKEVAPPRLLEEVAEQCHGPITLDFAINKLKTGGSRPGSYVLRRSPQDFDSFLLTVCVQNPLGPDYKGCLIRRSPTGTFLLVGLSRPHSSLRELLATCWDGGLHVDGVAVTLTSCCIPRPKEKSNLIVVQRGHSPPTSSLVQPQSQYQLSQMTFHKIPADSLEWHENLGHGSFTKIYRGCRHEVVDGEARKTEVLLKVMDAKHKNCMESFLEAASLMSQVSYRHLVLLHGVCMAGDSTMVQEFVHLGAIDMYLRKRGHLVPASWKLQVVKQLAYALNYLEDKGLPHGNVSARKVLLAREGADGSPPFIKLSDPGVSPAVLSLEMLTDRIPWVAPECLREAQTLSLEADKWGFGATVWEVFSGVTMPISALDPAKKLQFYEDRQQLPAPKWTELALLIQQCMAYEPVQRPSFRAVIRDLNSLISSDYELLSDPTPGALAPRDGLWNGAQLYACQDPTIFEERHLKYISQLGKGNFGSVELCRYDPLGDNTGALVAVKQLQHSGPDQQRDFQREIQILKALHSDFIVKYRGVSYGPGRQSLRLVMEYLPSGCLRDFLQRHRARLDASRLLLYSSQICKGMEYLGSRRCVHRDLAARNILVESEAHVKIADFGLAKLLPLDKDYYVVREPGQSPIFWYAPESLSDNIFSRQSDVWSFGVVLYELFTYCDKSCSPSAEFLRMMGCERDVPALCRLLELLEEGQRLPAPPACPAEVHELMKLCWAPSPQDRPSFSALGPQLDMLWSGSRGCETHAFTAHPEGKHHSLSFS
From the text: In FIG. 11B, gray box indicates day 1 of MAD portion. Symbols and error bars represent the arithmetic mean plus SD, and reference IC50 values shown are from data on file. BID, twice daily; HuPBMC, human peripheral blood mononuclear cell; IC50, concentration producing 50% of maximal inhibition.

[2] = target: T1, JAK3; assay: Co-crystal structure with human JAK3; type: binding
From the text: Such covalent binding to JAK3 could be beneficial by providing an extended target engagement which may translate in better efficacy.

[3] = Phase 1 MAD (Part B) plasma pharmacokinetics in healthy subjects; type: in vivo, human; details: for half-life: read-out: t1/2, mean (SD) (converted); for AUC: part B (MAD), 100 to 1000 mg BID
Method: The plasma PK parameters of the compound of formula (I) calculated following single (Part A) or multiple (Parts B) oral doses.
In each cohort, healthy subjects meeting eligibility criteria were sequentially randomized in a 3:1 ratio to receive either the compound of formula (I) or placebo BID, each morning and evening (approximately 12 hours following the morning dose) for 10 consecutive days of dosing, except for Day 10 where subjects were only received a morning dose. Subjects were dosed in an upright (i.e., seated or standing) position and remained upright for 5 minutes after dosing before a posture change for other study procedures, if applicable. Subjects fasted overnight for at least 9.5 hours prior to morning dose on Day 1 and Day 10. Subjects continued the fast for at least 4 hours post morning dose on these days. For all other morning doses and for all evening doses (i.e., Day 1 evening and Days 2 to 9), subjects were required to fast for at least 2 hours prior and for at least 2 hours following the dose.
PK sampling for the compound of formula (I) in plasma was taken Day 1 pre-morning dose and for 12 hours post-dose and Day 10 pre-morning dose and for 72 hours post Day 10 dose. Additional pre morning dose samples were taken on Days 2, 4, 6, and 8.
For all subjects, blood samples for the determination of plasma concentration of the compound of formula (I) were collected at scheduled time points. Blood samples were analyzed to calculate different plasma PK parameters in both part A and part B.
For all PK data analyses, the PK analysis set was used. Individual subject and mean plasma drug concentration versus time curves for the compound of formula (I) were presented for each dose group. Summary statistics (mean, standard deviation, coefficient of variation, median, minimum, maximum, geometric mean, geometric coefficient of variation, number of subjects) were calculated for plasma concentrations at each time point for each dose group, and the PK parameters for each dose group. Urine PK parameters were summarized for exploratory purposes.

[4] = Colon and plasma mouse pharmacokinetics; type: in vivo
[5] = plasma, Day 1, 100 mg BID, n = 6
[6] = plasma, Day 1, 300 mg BID, n = 6
[7] = plasma, Day 1, 1000 mg BID, n = 6
[8] = plasma, Day 10, 100 mg BID, n = 6
[9] = plasma, Day 10, 300 mg BID, n = 6

IC50 [1]: 369 nM
binding nature to JAK3 (co-crystal structure, covalent bond with Cys909) [2]: irreversible binding
time to steady state ([3]; 100 mg BID): 7 days
Accumulation ratio (AUC0-12,ss/AUC0-12), Geometric mean (CV %) ([3]; 100 mg BID, n = 6): 2.5 (35.2)
Accumulation ratio (AUC0-12,ss/AUC0-12), Mean (SD) ([3]; 100 mg BID, n = 6): 2.6 (0.78)
time to steady state ([3]; 300 mg BID): 3 days
Accumulation ratio (AUC0-12,ss/AUC0-12), Geometric mean (CV %) ([3]; 300 mg BID, n = 6): 2.3 (51.9)
Accumulation ratio (AUC0-12,ss/AUC0-12), Mean (SD) ([3]; 300 mg BID, n = 6): 2.5 (1.1)
fold mean Cmax,ss below the protein-adjusted JAK3 IC50 ([3]; 1000 mg BID): approximately 11 fold
time to steady state ([3]; 1000 mg BID): 3 days
Accumulation ratio (AUC0-12,ss/AUC0-12), Geometric mean (CV %) ([3]; 1000 mg BID, n = 6): 2.3 (92.5)
Accumulation ratio (AUC0-12,ss/AUC0-12), Mean (SD) ([3]; 1000 mg BID, n = 6): 2.9 (1.7)
dose proportionality of exposure (AUC and Cmax) ([3]; after multiple-dose administration): dose proportionally
Tmax ([3]; both sexes, human, oral, plasma, Day 10 (morning dose), 100 mg BID, n = 6, read-out: Tmax,ss, median (min, max)): 2 h
half-life ([3]; both sexes, human, oral, plasma, Day 10 (morning dose), 100 mg BID, n = 6): 19.8 h
Tmax ([3]; both sexes, human, oral, plasma, Day 10 (morning dose), 300 mg BID, n = 6, read-out: Tmax,ss, median (min, max)): 1 h
half-life ([3]; both sexes, human, oral, plasma, Day 10 (morning dose), 300 mg BID, n = 6): 19.2 h
Tmax ([3]; both sexes, human, oral, plasma, Day 10 (morning dose), 1000 mg BID, n = 6, read-out: Tmax,ss, median (min, max)): 1 h
half-life ([3]; both sexes, human, oral, plasma, Day 10 (morning dose), 1000 mg BID, n = 6): 18.5 h
AUC(0-t) ([3]; both sexes, human, plasma, oral, 100 mg, plasma, Day 1 (morning dose), 100 mg BID, n = 6, read-out: AUC0-12, mean (SD)): 3.5 ng·h/mL
AUC(0-t) ([3]; both sexes, human, plasma, oral, 100 mg, plasma, Day 10 (morning dose), 100 mg BID, n = 6, read-out: AUC0-12,ss, mean (SD)): 8.9 ng·h/mL
Cmax ([3]; both sexes, human, plasma, oral, 100 mg, plasma, Day 10 (morning dose), 100 mg BID, n = 6, read-out: Cmax,ss, mean (SD)): 1.7 ng/mL
AUC(0-t) ([3]; both sexes, human, plasma, oral, 300 mg, plasma, Day 1 (morning dose), 300 mg BID, n = 6, read-out: AUC0-12, mean (SD)): 8.5 ng·h/mL
AUC(0-t) ([3]; both sexes, human, plasma, oral, 300 mg, plasma, Day 10 (morning dose), 300 mg BID, n = 6, read-out: AUC0-12,ss, mean (SD)): 16.9 ng·h/mL
Cmax ([3]; both sexes, human, plasma, oral, 300 mg, plasma, Day 10 (morning dose), 300 mg BID, n = 6, read-out: Cmax,ss, mean (SD)): 3.5 ng/mL
AUC(0-t) ([3]; both sexes, human, plasma, oral, 1000 mg, plasma, Day 1 (morning dose), 1000 mg BID, n = 6, read-out: AUC0-12, mean (SD)): 37.4 ng·h/mL
AUC(0-t) ([3]; both sexes, human, plasma, oral, 1000 mg, plasma, Day 10 (morning dose), 1000 mg BID, n = 6, read-out: AUC0-12,ss, mean (SD)): 62.1 ng·h/mL
Cmax ([3]; both sexes, human, plasma, oral, 1000 mg, plasma, Day 10 (morning dose), 1000 mg BID, n = 6, read-out: Cmax,ss, mean (SD)): 13.3 ng/mL
Tmax ([3]; human, oral, plasma, Day 1 (morning dose), 100 mg BID, n = 6, read-out: Tmax, median (min, max)): 1.5 h
Tmax ([3]; human, oral, plasma, Day 1 (morning dose), 300 mg BID, n = 6, read-out: Tmax, median (min, max)): 1 h
Tmax ([3]; human, oral, plasma, Day 1 (morning dose), 1000 mg BID, n = 6, read-out: Tmax, median (min, max)): 1.5 h
Cmax ([3]; human, plasma, oral, 100 mg, plasma, Day 1 (morning dose), 100 mg BID, n = 6, read-out: Cmax, mean (SD)): 0.78 ng/mL
Cmax ([3]; human, plasma, oral, 300 mg, plasma, Day 1 (morning dose), 300 mg BID, n = 6, read-out: Cmax, mean (SD)): 2.6 ng/mL
Cmax ([3]; human, plasma, oral, 1000 mg, highest tested dose (1000 mg BID), read-out: mean Cmax,ss (maximum observed concentration at steady-state)): 13 ng/mL
Cmax ([3]; human, plasma, oral, 1000 mg, plasma, Day 1 (morning dose), 1000 mg BID, n = 6, read-out: Cmax, mean (SD)): 10.7 ng/mL
AUC ([3]; human, plasma, oral, read-out: AUCss0-12 in the plasma of the subjects (range)): 5.43 to 88.5 ng·h/mL
AUC ([3]; human, plasma, oral, read-out: average AUCss0-12): 8.94 to 62.1 ng·h/mL
concentration at 10 days ([3]; human, plasma, oral, multiple doses up to 1000 mg BID, read-out: Plasma concentrations): < 35 ng/mL
Dose normalized AUC0-12/D, mean (SD) [3, 5]: 0.035 (0.012) ng*hr/mL/mg
Dose normalized Cmax/D, mean (SD) [3, 5]: 0.0078 (0.0033) ng/mL/mg
Dose normalized AUC0-12/D, mean (SD) [3, 6]: 0.028 (0.016) ng*hr/mL/mg
Dose normalized Cmax/D, mean (SD) [3, 6]: 0.0086 (0.0079) ng/mL/mg
Dose normalized AUC0-12/D, mean (SD) [3, 7]: 0.037 (0.039) ng*hr/mL/mg
Dose normalized Cmax/D, mean (SD) [3, 7]: 0.011 (0.013) ng/mL/mg
Dose normalized AUC0-12,ss/D, mean (SD) [3, 8]: 0.089 (0.036) ng*hr/mL/mg
Dose normalized Cmax,ss/D, mean (SD) [3, 8]: 0.017 (0.0080) ng/mL/mg
Dose normalized AUC0-12,ss/D, mean (SD) [3, 9]: 0.056 (0.012) ng*hr/mL/mg
Dose normalized Cmax,ss/D, mean (SD) [3, 9]: 0.012 (0.0045) ng/mL/mg
Dose normalized Cmax,ss/D, mean (SD) ([3]; plasma, Day 10, 1000 mg BID, n = 6): 0.013 (0.0084) ng/mL/mg
Kp ([4]; colon/plasma, mouse, oral administration, read-out: ratio of exposure in the colon to exposure in plasma): > 1250
permeability coefficient (Papp) ([4]; stated in the sentence on the colon and plasma mouse pharmacokinetics study): less than 10×10^−6 cm/sec
Structure (SMILES): CN(C)C/C=C/C(=O)N1CC(COc2cc(-c3ccc(O)cc3)cc3[nH]ncc23)C1 [compound of formula (I)]
